Reference: patent US10654816B2, “Compounds and compositions for treating conditions associated with NLRP activity” (NOVARTIS INFLAMMASOME RESEARCH, INC., priority 2017, dated 2020)

These compounds were tested on IL-1β production in PMA-differentiated THP-1 cells (assay: IL-1β production in PMA-differentiated THP-1 cells stimulated with gramicidin (hTHP-1 assay, HTRF readout; Procedures 1-3)). Settings: Homo sapiens, THP-1, hTHP-1 assay containing 2% fetal bovine serum; average; class symbols; read-out: hTHP-1 IC50 (Average IC50 of compounds in hTHP-1 assay).
Assay type: cell-based, human
Method in brief: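 PMA-differentiated (20 ng/ml, 16-18 h) THP-1 cells in RPMI with 2% FBS, 50,000 cells/well, preincubated 1 h with compound (final 0.0017-100 μM, 0.37% DMSO), then stimulated with 5 μM gramicidin for 2 h. IL-1β in cell-free supernatant measured by HTRF (620/668 nm).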

SMILES	IC50 [nM]
NCc1ccc(S(N)(=O)=NC(=O)Nc2c3c(cc4c2CCC4)CCC3)cc1 (single isomer, unassigned) [Example 411, (R) or (S)-4-(aminomethyl)-N′-((1,2,3,5,6,7-hexahydro-s-indacen-4-yl)carbamoyl)benzene-sulfonimidamide]	1000 to 5000
CC(C)Cc1ccc(S(N)(=O)=NC(=O)Nc2c3c(cc4c2CCC4)CCC3)cn1 (single isomer, unassigned) [Example 416, (S) or (R)-N′-((1,2,3,5,6,7-hexahydro-s-indacen-4-yl)carbamoyl)-6-isobutylpyridine-3-sulfonimidamide]	200 to 1000
Cc1oc(S(N)(=O)=NC(=O)Nc2c3c(cc4c2CCC4)CCC3)cc1C(C)(C)O (stereo not drawn) [Example 1, N′-(1,2,3,5,6,7-hexahydro-s-indacen-4-ylcarbamoyl)-4-(2-hydroxypropan-2-yl)-5-methylfuran-2-sulfonimidamide]	8 to 40
Cc1oc([S@@](N)(=O)=NC(=O)Nc2c3c(cc4c2CCC4)CCC3)cc1C(C)(C)O [Example 2, (S)—N′-(1,2,3,5,6,7-hexahydro-s-indacen-4-ylcarbamoyl)-4-(2-hydroxypropan-2-yl)-5-methylfuran-2-sulfonimidamide]	8 to 40
CC(C)(C)OC(=O)NS(=O)(=NC(=O)Nc1c2c(cc3c1CCC3)CCC2)c1cnc(C(C)(C)O)s1 (stereo not drawn) [Example 7, Tert-butyl N-(1,2,3,5,6,7-hexahydro-s-indacen-4-ylcarbamoyl)-2-(2-hydroxypropan-2-yl)thiazole-5-sulfonimidoylcarbamate]	200 to 1000
Cc1oc(S(N)(=O)=NC(=O)Nc2c(C(C)C)cc(F)cc2C(C)C)cc1C(C)(C)O (stereo not drawn) [Example 10, N′-(4-fluoro-2,6-diisopropylphenylcarbamoyl)-4-(2-hydroxypropan-2-yl)-5-methylfuran-2-sulfonimidamide]	40 to 200
CC(C)c1cc(F)cc(C(C)C)c1NC(=O)N=S(N)(=O)c1ccc(C(C)(C)O)cc1 (stereo not drawn) [Example 11, N′-(4-fluoro-2,6-diisopropylphenylcarbamoyl)-4-(2-hydroxypropan-2-yl)benzenesulfonimidamide]	5000 to 30000
Cc1sc(S(N)(=O)=NC(=O)Nc2c3c(cc4c2CCC4)CCC3)cc1C(C)(C)O (stereo not drawn) [Example 12, N′-(1,2,3,5,6,7-hexahydro-s-indacen-4-ylcarbamoyl)-4-(2-hydroxypropan-2-yl)-5-methylthiophene-2-sulfonimidamide]	40 to 200
CC(C)c1cc(OC(F)F)cc(C(C)C)c1NC(=O)N=S(N)(=O)c1sc(C(C)(C)O)cc1F (stereo not drawn) [Example 17, N′-(4-(difluoromethoxy)-2,6-diisopropylphenylcarbamoyl)-3-fluoro-5-(2-hydroxypropan-2-yl)thiophene-2-sulfonimidamide]	8 to 40
CCc1cc(OC(F)F)cc(C(C)C)c1NC(=O)N=S(N)(=O)c1cnc(C(C)(C)O)s1 (stereo not drawn) [Example 18, N′-(4-(difluoromethoxy)-2-ethyl-6-isopropylphenylcarbamoyl)-2-(2-hydroxypropan-2-yl)thiazole-5-sulfonimidamide]	200 to 1000
Cc1cc(C(C)(C)O)ccc1S(N)(=O)=NC(=O)Nc1c2c(cc3c1CCC3)CCC2 (stereo not drawn) [Example 19, N′-(1,2,3,5,6,7-hexahydro-s-indacen-4-ylcarbamoyl)-4-(2-hydroxypropan-2-yl)-2-methylbenzenesulfonimidamide]	1000 to 5000
CC(C)c1cc(F)cc(C(C)C)c1NC(=O)N=S(N)(=O)c1cccc(C(C)(C)O)c1 (stereo not drawn) [Example 22, N′-(4-fluoro-2,6-diisopropylphenylcarbamoyl)-3-(2-hydroxypropan-2-yl)benzenesulfonimidamide]	1000 to 5000
Cc1cc(C(C)(C)O)sc1S(N)(=O)=NC(=O)Nc1c(C(C)C)cc(OC(F)F)cc1C(C)C (stereo not drawn) [Example 24, N′-(4-(difluoromethoxy)-2,6-diisopropylphenylcarbamoyl)-5-(2-hydroxypropan-2-yl)-3-methylthiophene-2-sulfonimidamide]	1000 to 5000
CC(C)(O)c1csc(S(N)(=O)=NC(=O)Nc2c3c(c(C#N)c4c2CCC4)CCC3)c1 (stereo not drawn) [Example 26, N′-(8-cyano-1,2,3,5,6,7-hexahydro-s-indacen-4-ylcarbamoyl)-4-(2-hydroxypropan-2-yl)thiophene-2-sulfonimidamide]	40 to 200
CC(C)(O)c1ncc(S(N)(=O)=NC(=O)Nc2c3c(c(OC(F)F)c4c2CCC4)CCC3)s1 (stereo not drawn) [Example 27, N′-(8-(difluoromethoxy)-1,2,3,5,6,7-hexahydro-s-indacen-4-ylcarbainoyl)-2-(2-hydroxypropan-2-yl)thiazole-5-sulfonimidamide]	200 to 1000
Cc1cc(C(C)(C)O)ccc1S(N)(=O)=NC(=O)Nc1c(C(C)C)cc(OC(F)F)cc1C1CC1 (stereo not drawn) [Example 29, N′-(2-cyclopropyl-4-(difluoromethoxy)-6-isopropylphenylcarbamoyl)-4-(2-hydroxypropan-2-yl)-2-methylbenzenesulfonimidamide]	5000 to 30000
Cc1oc(S(N)(=O)=NC(=O)Nc2c(C(C)C)cc(C#N)c(F)c2C(C)C)cc1C(C)(C)O (stereo not drawn) [Example 33, N′-(4-cyano-3-fluoro-2,6-diisopropylphenylcarbamoyl)-4-(2-hydroxypropan-2-yl)-5-methylfuran-2-sulfonimidamide]	40 to 200
CC(C)(O)c1cccc(S(N)(=O)=NC(=O)Nc2c3c(c(F)c4c2CCC4)CCC3)c1 (stereo not drawn) [Example 34, N′-(8-fluoro-1,2,3,5,6,7-hexahydro-s-indacen-4-ylcarbamoyl)-3-(2-hydroxypropan-2-yl)benzenesulfonimidamide]	1000 to 5000
CC(C)c1cc(C#N)cc(C(C)C)c1NC(=O)N=S(N)(=O)c1ncc(C(C)(C)O)s1 (stereo not drawn) [Example 35, N′-(4-cyano-2,6-diisopropylphenylcarbamoyl)-5-(2-hydroxypropan-2-yl)thiazole-2-sulfonimidamide]	200 to 1000
CC(C)c1cc(F)cc(C(C)C)c1NC(=O)N=S(N)(=O)c1ccc(CN(C)C)cc1 (stereo not drawn) [Example 36, 4-((dimethylamino)methyl)-N′-(4-fluoro-2,6-diisopropylphenylcarbamoyl)-benzenesulfoniniidamide]	1000 to 5000
CC(C)c1cc(OC(F)F)cc(C2CC2)c1NC(=O)N=S(N)(=O)c1ccc(CN(C)C)cc1 (stereo not drawn) [Example 37, N′-(2-cyclopropyl-4-(difluoromethoxy)-6-isopropylphenylcarbamoyl)-4-((dimethylamino)methyl)benzene sulfonimidamide]	1000 to 5000
CC(C)c1cc(F)cc(C(C)C)c1NC(=O)N=S(N)(=O)c1ncc(C(C)(C)O)s1 (stereo not drawn) [Example 39, N′-(4-fluoro-2,6-diisopropylphenylcarbamoyl)-5-(2-hydroxypropan-2-yl)thiazole-2-sulfonimidamide]	200 to 1000
CC(C)c1cc(F)cc(C(C)C)c1NC(=O)N=S(N)(=O)c1cc(C(C)(C)O)cs1 (stereo not drawn) [Example 40, N′-(4-fluoro-2,6-diisopropylphenylcarbamoyl)-4-(2-hydroxypropan-2-yl)thiophene-2-sulfonimidamide]	40 to 200
CC(C)c1cc(F)cc(C(C)C)c1NC(=O)N=S(N)(=O)c1ccc(S(C)(=O)=O)cc1 (stereo not drawn) [Example 42, N′-(4-fluoro-2,6-diisopropylphenylcarbamoyl)-4-(methylsulfonyl)benzenesulfonim idamide]	5000 to 30000
CC(C)(O)c1ncc(S(N)(=O)=NC(=O)Nc2c3c(c(C#N)c4c2CCC4)CCC3)s1 (stereo not drawn) [Example 43, N′-(8-cyano-1,2,3,5,6,7-hexaliydro-s-indacen-4-ylcarbamoyl)-2-(2-hydroxypropan-2-yl)thiazole-5-sulfonimidamide]	40 to 200
CC(C)(O)c1cccc(S(N)(=O)=NC(=O)Nc2c3c(cc4c2CCC4)CCC3)c1 (stereo not drawn) [Example 46, N′-(1,2,3,5,6,7-hexahydro-s-indacen-4-ylcarbamoyl)-3-(2-hydroxypropan-2-yl)benzenesulfonimidamide]	1000 to 5000

Same assay, conditions: Homo sapiens, THP-1, hTHP-1 assay containing 2% fetal bovine serum; average; given as bound; read-out: hTHP-1 IC50 (Average IC50 of compounds in hTHP-1 assay)

SMILES	IC50 [nM]
NCc1ccc(S(N)(=O)=NC(=O)Nc2c3c(cc4c2CCC4)CCC3)cc1 (single isomer, unassigned) [Example 412, (S) or (R)-4-(aminomethyl)-N′-((1,2,3,5,6,7-hexahydro-s-indacen-4-yl)carbamoyl)benzene-sulfonimidamide]	> 30000
CC(C)Cc1ccc(S(N)(=O)=NC(=O)Nc2c3c(cc4c2CCC4)CCC3)cn1 (single isomer, unassigned) [Example 415, (R) or (S)-N′-((1,2,3,5,6,7-hexahydro-s-indacen-4-yl)carbamoyl)-6-isobutylpyridine-3-sulfonimidamide]	> 30000
CC(C)c1cc(-c2ccccc2CO)cc(C(C)C)c1NC(=O)N=S(N)(=O)c1ccc(CN(C)C)cc1 (stereo not drawn) [Compound 249]	> 30000
Cc1cc(NC(=O)N=S(N)(=O)c2cc(C)c(C(C)(C)O)s2)cc(C)n1 (stereo not drawn) [Example 9, N′-((2,6-dimethylpyridin-4-yl)carbamoyl)-4-methyl-5-(2-hydroxypropan-2-yl)thiophene-2-sulfonimidamide]	> 30000
